Legend:
Assay type in all cases: cell-based, human
OPM-2 cells [1] = assay: Cell cycle analysis (propidium iodide), sub-G1 fraction, OPM-2; details: OPM-2, after 72 h
Protocol: The compound according to example 1, hereinafter referred to as GSI15, (compound RH02015SC, Maybridge, Acros Organics, Geel, Belgium) was freshly dissolved as 26 mM stock solution in Dimethylsulfoxide (DMSO). Multiple myeloma therapeutics used were melphalan (marketed as Alkeran®, GlaxoSmithKline, Munich, Germany) and bortezomib (marketed as Velcade®, Janssen-Cilag, Neuss, Germany). Melphalan was freshly dissolved at 10 mg/ml in 0.9% NaCl-solution. Bortezomib was freshly dissolved at 100 ng/ml in 0.9% NaCl solution. Gamma Secretase Inhibitor (GSI) treatment for apoptosis assessment by AnnexinV/PI staining, cell cycle analysis and coculture experiments was performed in 6-well plates. GSI15 stock solution was added directly to the cell suspension. GSI treatment for assaying proliferation was performed in 96-well plates. […]
For cell cycle analysis 2×10^5 cells were spun down, medium was aspirated and cells washed with PBS. […] After 10 minutes incubation in the dark at room temperature, cells were analyzed by flow cytometry. The amount of apoptotic cells was determined by AnnexinV/propidium iodide staining using Human AnnexinV-FITC Kit (Bender Medsystems, Vienna, Austria), according to manufacturer's protocol. […] Cells were then spun down again, resuspended in binding buffer containing PI and analyzed by flow cytometry.

OPM-2 cells [2] = assay: PARP cleavage by Western blotting, OPM-2
Protocol: (§1) In osteoclast coculture experiments, OPM-2 cells (1×10^6 cells) were added to osteoclasts in 60 mm dishes (4×10^6 cells per dish) in 3 ml MEM medium supplemented with 10% FCS, 100 U/ml penicillin, 100 μg/ml streptomycin. GSI15 (30 μM, 60 μM) or DMSO (equivalent to 60 μM) as solvent control were added to each well (daily treatment). After 48 h, 0.5 ml OPM-2 cell suspension were harvested per well and subjected to AnnexinV-FITC/PI staining. Remaining OPM-2 cells were harvested and lysed for either RNA or protein preparation. The monolayer of osteoclasts was washed twice with ice-cold PBS and then lysed for either RNA or protein preparation directly on the plate.
In osteoblast coculture experiments, OPM-2 cells (7.5×10^5) were added to osteoblasts (2×10^5 cells) in 6-well plates in 2 ml DMEM/HAM's F12 medium supplemented with 10% FCS, 100 U/ml penicillin, 100 μg/ml streptomycin. GSI15 (40 μM, 60 μM, 80 μM) or DMSO (equivalent to 80 μM) as solvent control was added to each well (daily treatment). After 72 h of coculture and GSI15 treatment OPM-2 cells in suspension were aspirated and subjected to protein lysis. The remaining monolayer of osteoblasts was washed twice with ice-cold PBS and lysed directly on the plate with protein lysis buffer.
Whole cell extracts were prepared and quantified as described in Jundt F, Anagnostopoulos I, Forster R, Mathas S, Stein H, Dorken B. Activated Notch1 signaling promotes tumor cell proliferation and survival in Hodgkin and anaplastic large cell lymphoma. Blood. 2002; 99:3398-3403. Proteins (30 μg) were resolved by sodium dodecyl sulfate-polyacrylamide gel electrophoresis (SDS-PAGE) and transferred to nitrocellulose membranes. Protein loading was normalized by Ponceau red staining. […]
Secondary antibodies were goat anti-mouse (Promega, Mannheim, Germany), goat anti-rat (Dianova, Hamburg, Germany), and goat anti-rabbit (Santa Cruz Biotechnology) horseradish peroxidase (HRP)-conjugated antibodies. Detection was done using Pico chemi-luminescence reagent (Perbio Science, Bonn, Germany).

Hes-1 = Hes-1 mRNA expression in OCL (quantitative RT-PCR); details: mono- and coculture with OPM-2
Protocol: as §1
Quantitative real-time reverse transcription-PCR (RT-PCR) analysis was performed using the following primer/probe sets: human Hes-1 (forward—[…], reverse—[…], probe—FAM-[…]-TAMRA) human TRAP5 (forward—[…], reverse—[…], probe FAM-[…]-TAMRA), human beta2-microglobulin (forward—ccc cca ctg aaa aag atg ag, reverse—atc caa tcc aaa tgc ggc, probe—FAM-CCTGCCGTGTGAACCATGTGACTTT-TAMRA) served as normalizer. […] For the RT-PCR reaction SuperScript™ III Platinum® One-Step Quantitative RT-PCR System (Invitrogen, Karlsruhe, Germany) was used. 50 ng total RNA were used per reaction, each RNA sample was analyzed in three replicates. […] Normalized mRNA expression data were then calculated as values relative to the respective untreated sample.

In the case of `CC(C)c1ccc(S(=O)(=O)Nc2cccnc2Oc2ccc(Cl)cc2)cc1` [Example 1, N-(2-(4-chlorophenoxy)pyridin-3-yl)-4-isopropylbenzenesulfonamide], the sub-G1 fraction (OPM-2 cells [1]) was “increase in the sub-G1 fraction”, the PARP cleavage (OPM-2 cells [2]; MM cells in coculture with OBL or MSC) was “apoptosis induction” and the “PARP cleavage product (apoptosis marker)” value (OPM-2 cells [2]; OPM-2, 30 μM GSI15) was “Apoptosis induction could be shown”. The PARP cleavage (OPM-2 cells [2]; OPM-2 in mono- and coculture with OCL) was “Strong induction of PARP cleavage” and the “Hes-1 mRNA expression” value (Hes-1) was “diminished Hes-1 mRNA expression”.

From patent publication US20110251220A1, “Pharmaceutical compositions comprising gamma secretase modulators” (priority 2008, published 2011)
